Patent US20240398828A1, “HETERO-ATOM CONTAINING COMPOUNDS AND USES THEREOF” (Kumquat Biosciences Inc., priority 2021, published 2024)

Legend:
PTPN1 (i.e., PTP1B) = target: T1, PTPN1 (i.e., PTP1B) (Homo sapiens, UniProt P18031); experiment: Phosphatase activity assay (DiFMUP substrate), PTP1B; assay type: biochemical; details: compounds binned ≤1 uM or >1 uM
T1 sequence (P18031 1-435): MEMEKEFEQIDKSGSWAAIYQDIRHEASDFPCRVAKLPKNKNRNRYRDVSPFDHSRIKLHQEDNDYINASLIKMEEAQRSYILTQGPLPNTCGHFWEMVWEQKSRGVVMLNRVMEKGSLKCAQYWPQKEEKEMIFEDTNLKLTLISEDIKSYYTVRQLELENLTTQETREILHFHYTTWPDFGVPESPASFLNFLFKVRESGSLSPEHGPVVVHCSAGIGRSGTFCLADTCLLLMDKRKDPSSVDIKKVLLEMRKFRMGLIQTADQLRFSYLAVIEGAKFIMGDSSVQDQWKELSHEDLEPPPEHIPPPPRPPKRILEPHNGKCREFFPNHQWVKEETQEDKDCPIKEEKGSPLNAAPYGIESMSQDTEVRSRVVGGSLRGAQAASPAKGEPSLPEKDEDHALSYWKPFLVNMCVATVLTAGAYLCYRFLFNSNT
Procedure, shortened: (§1)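 Enzyme (e.g. PTPN2 0.025 ng/ul) mixed about 2 min with compound at 10 serial concentrations in 50 mM HEPES pH 7.5, 150 mM NaCl, 0.5 mM EDTA, 1 mM DTT, 0.001% Tween-20 at room temperature. DiFMUP added at each enzyme's Km (about 45 μM for PTPN2). DiFMU fluorescence (ex 360/em 450 nm) followed 15-30 min; IC50 from 4-parameter fit of rates.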

PTPN2 (i.e., TC-PTP) = target: T2, PTPN2 (i.e., TC-PTP) (Homo sapiens, UniProt P17706); experiment: Phosphatase activity assay (DiFMUP substrate), PTPN2; assay type: biochemical; details: compounds binned ≤1 uM or >1 uM
T2 sequence (P17706 1-415): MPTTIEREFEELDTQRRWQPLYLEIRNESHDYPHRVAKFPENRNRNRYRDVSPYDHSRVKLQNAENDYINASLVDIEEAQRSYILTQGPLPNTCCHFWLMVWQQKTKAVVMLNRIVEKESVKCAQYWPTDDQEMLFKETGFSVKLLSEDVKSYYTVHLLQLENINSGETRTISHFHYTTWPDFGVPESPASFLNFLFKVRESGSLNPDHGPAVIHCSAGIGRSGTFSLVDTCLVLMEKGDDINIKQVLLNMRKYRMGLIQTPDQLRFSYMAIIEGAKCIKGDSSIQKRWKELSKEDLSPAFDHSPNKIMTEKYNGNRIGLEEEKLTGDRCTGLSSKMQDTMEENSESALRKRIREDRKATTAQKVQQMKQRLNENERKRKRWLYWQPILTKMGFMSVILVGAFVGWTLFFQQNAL
Procedure, shortened: as §1

Compound	IC50 (PTPN1 (i.e., PTP1B))	IC50 (PTPN2 (i.e., TC-PTP))
CC(=O)N(C)C1CC=C(c2ccc(O)c(N3CC(=O)NS3(=O)=O)c2F)CC1 (centres unmarked) [Compound 377, N-(3′-(1,1-dioxido-4-oxo-1,2,5-thiadiazolidin-2-yl)-2′-fluoro-4′-hydroxy-2,3,4,5-tetrahydro-[1,1′-biphenyl]-4-yl)-N-methylacetamide]	≤ 1000 nM	≤ 1000 nM
O=C1CN(c2c(O)ccc(-c3cc(C4CC4)nn3CC3CC3)c2F)S(=O)(=O)N1 [Compound 239, 5-(3-(3-cyclopropyl-1-(cyclopropylmethyl)-1H-pyrazol-5-yl)-2-fluoro-6-hydroxyphenyl)-1,2,5-thiadiazolidin-3-one 1,1-dioxide]	≤ 1000 nM	≤ 1000 nM
Cc1cc(-c2ccc(O)c(N3CC(=O)NS3(=O)=O)c2F)on1 [Compound 182, 5-(2-fluoro-6-hydroxy-3-(3-methylisoxazol-5-yl)phenyl)-1,2,5-thiadiazolidin-3-one 1,1-dioxide]	≤ 1000 nM	≤ 1000 nM
O=C1CN(c2c(O)ccc(-c3cc(C4CC4(F)F)no3)c2F)S(=O)(=O)N1 (centres unmarked) [Compound 490, 5-(3-(3-(2,2-difluorocyclopropyl)isoxazol-5-yl)-2-fluoro-6-hydroxyphenyl)-1,2,5-thiadiazolidin-3-one 1,1-dioxide]	≤ 1000 nM	≤ 1000 nM
O=C1CN(c2c(O)ccc(-c3cc(C4CC4)n(CC4CCCN4)n3)c2F)S(=O)(=O)N1 (centres unmarked) [Compound 382, 5-(3-(5-cyclopropyl-1-(pyrrolidin-2-ylmethyl)-1H-pyrazol-3-yl)-2-fluoro-6-hydroxyphenyl)-1,2,5-thiadiazolidin-3-one 1,1-dioxide]	≤ 1000 nM	≤ 1000 nM
CC(C)(C#N)c1cc(-c2ccc(O)c(N3CC(=O)NS3(=O)=O)c2F)[nH]n1 [Compound 368, 2-(5-(3-(1,1-dioxido-4-oxo-1,2,5-thiadiazolidin-2-yl)-2-fluoro-4-hydroxyphenyl)-1H-pyrazol-3-yl)-2-methylpropanenitrile]	≤ 1000 nM	≤ 1000 nM
O=C1CN(c2c(O)ccc(-c3cc(CCC4CCCCC4)n[nH]3)c2F)S(=O)(=O)N1 [Compound 455, 5-(3-(3-(2-cyclohexylethyl)-1H-pyrazol-5-yl)-2-fluoro-6-hydroxyphenyl)-1,2,5-thiadiazolidin-3-one 1,1-dioxide]	≤ 1000 nM	≤ 1000 nM
N#CC1CC1c1cc(-c2ccc(O)c(N3CC(=O)NS3(=O)=O)c2F)[nH]n1 (centres unmarked) [Compound 478, 2-(5-(3-(1,1-dioxido-4-oxo-1,2,5-thiadiazolidin-2-yl)-2-fluoro-4-hydroxyphenyl)-1H-pyrazol-3-yl)cyclopropane-1-carbonitrile]	≤ 1000 nM	≤ 1000 nM
CC(C)c1cc(-c2ccc(O)c(N3CC(=O)NS3(=O)=O)c2F)[nH]n1 [Compound 379, 5-(2-fluoro-6-hydroxy-3-(3-isopropyl-1H-pyrazol-5-yl)phenyl)-1,2,5-thiadiazolidin-3-one 1,1-dioxide]	≤ 1000 nM	≤ 1000 nM
O=C1CN(c2c(O)ccc(-c3cnn(C4CC5CCC(C4)O5)c3)c2F)S(=O)(=O)N1 (centres unmarked) [Compound 465, 5-(3-(1-(8-oxabicyclo[3.2.1]octan-3-yl)-1H-pyrazol-4-yl)-2-fluoro-6-hydroxyphenyl)-1,2,5-thiadiazolidin-3-one 1,1-dioxide]	≤ 1000 nM	≤ 1000 nM
O=C1CN(c2c(O)ccc(C3=CC4CCC3N4)c2F)S(=O)(=O)N1 (centres unmarked) [Compound 475, 5-(3-(7-azabicyclo[2.2.1]hept-2-en-2-yl)-2-fluoro-6-hydroxyphenyl)-1,2,5-thiadiazolidin-3-one 1,1-dioxide]	≤ 1000 nM	> 1000 nM

Next, values leading:

IC50 (PTPN1 (i.e., PTP1B))	IC50 (PTPN2 (i.e., TC-PTP))	Compound
≤ 1000 nM	≤ 1000 nM	O=C1CN(c2c(O)ccc(-c3coc(-c4ccccc4)n3)c2F)S(=O)(=O)N1 [Compound 173, 5-(2-fluoro-6-hydroxy-3-(2-phenyloxazol-4-yl)phenyl)-1,2,5-thiadiazolidin-3-one 1,1-dioxide]
≤ 1000 nM	≤ 1000 nM	CS(=O)(=O)Nc1ccc(-c2ccc(O)c(N3CC(=O)NS3(=O)=O)c2F)cc1 [Compound 236, N-(3′-(1,1-dioxido-4-oxo-1,2,5-thiadiazolidin-2-yl)-2′-fluoro-4′-hydroxy-[1,1′-biphenyl]-4-yl)methanesulfonamide]
≤ 1000 nM	≤ 1000 nM	CC(C)CC1C=C(c2ccc(O)c(N3CC(=O)NS3(=O)=O)c2F)CN1 (centres unmarked) [Compound 531, 5-(2-fluoro-6-hydroxy-3-(5-isobutyl-2,5-dihydro-1H-pyrrol-3-yl)phenyl)-1,2,5-thiadiazolidin-3-one 1,1-dioxide]
≤ 1000 nM	≤ 1000 nM	O=C1CN(c2c(O)ccc(-c3cnn(Cc4cncnc4)c3)c2F)S(=O)(=O)N1 [Compound 197, 5-(2-fluoro-6-hydroxy-3-(1-(pyrimidin-5-ylmethyl)-1H-pyrazol-4-yl)phenyl)-1,2,5-thiadiazolidin-3-one 1,1-dioxide]
≤ 1000 nM	≤ 1000 nM	CS(=O)(=O)n1nc(-c2ccc(O)c(N3CC(=O)NS3(=O)=O)c2F)cc1C1CC1 [Compound 498, 5-(3-(5-cyclopropyl-1-(methylsulfonyl)-1H-pyrazol-3-yl)-2-fluoro-6-hydroxyphenyl)-1,2,5-thiadiazolidin-3-one 1,1-dioxide]
≤ 1000 nM	≤ 1000 nM	O=C1CN(c2c(O)ccc(-c3ccc(NS(=O)(=O)CC4CC4)cc3)c2F)S(=O)(=O)N1 [Compound 231, 1-cyclopropyl-N-(3′-(1,1-dioxido-4-oxo-1,2,5-thiadiazolidin-2-yl)-2′-fluoro-4′-hydroxy-[1,1′-biphenyl]-4-yl)methanesulfonamide]
≤ 1000 nM	≤ 1000 nM	O=C1CN(c2c(O)ccc(-c3cc(C(F)F)n[nH]3)c2F)S(=O)(=O)N1 [Compound 337, 5-(3-(3-(difluoromethyl)-1H-pyrazol-5-yl)-2-fluoro-6-hydroxyphenyl)-1,2,5-thiadiazolidin-3-one 1,1-dioxide]
≤ 1000 nM	≤ 1000 nM	O=C1CN(c2c(O)ccc(-c3cnn(CCC4CCCOC4)c3)c2F)S(=O)(=O)N1 (centres unmarked) [Compound 154, 5-(2-fluoro-6-hydroxy-3-(1-(2-(tetrahydro-2H-pyran-3-yl)ethyl)-1H-pyrazol-4-yl)phenyl)-1,2,5-thiadiazolidin-3-one 1,1-dioxide]
≤ 1000 nM	≤ 1000 nM	O=C1CN(c2c(O)ccc(-c3ccc(NS(=O)(=O)C4CC4)c(F)c3)c2F)S(=O)(=O)N1 [Compound 384, N-(3′-(1,1-dioxido-4-oxo-1,2,5-thiadiazolidin-2-yl)-2′,3-difluoro-4′-hydroxy-[1,1′-biphenyl]-4-yl)cyclopropanesulfonamide]
≤ 1000 nM	≤ 1000 nM	O=C1CN(c2c(O)ccc(-c3cc(C4CC4)n(CC(F)F)n3)c2F)S(=O)(=O)N1 [Compound 435, 5-(3-(5-cyclopropyl-1-(2,2-difluoroethyl)-1H-pyrazol-3-yl)-2-fluoro-6-hydroxyphenyl)-1,2,5-thiadiazolidin-3-one 1,1-dioxide]
≤ 1000 nM	≤ 1000 nM	Cc1cc(-c2ccc(O)c(N3CC(=O)NS3(=O)=O)c2F)sn1 [Compound 283, 5-(2-fluoro-6-hydroxy-3-(3-methylisothiazol-5-yl)phenyl)-1,2,5-thiadiazolidin-3-one 1,1-dioxide]
